This note sets out measurements from patent US8354498B2, “CD4 mimic peptides and their uses” (Commissariat a l'Energie Atomique, priority 2006, dated 2013).

Type in all cases: cell-based
The test system of test [1] is HIV-1 pseudovirus SF162. In words: HIV single cycle pseudovirus assay in GHOST cells. Conditions: read-out: antiviral activity EC50. On the procedure: (§1) For single-cycle infection experiments, HIV pseudoviruses representative of different HIV-1 subtypes were produced by co-transfection of 2×10^5 HEK293 (American Type Culture Collection) derived cells expressing the SV40 T antigen (HEK293 T), using the calcium phosphate method (ProFection® mammalian transfection system; PROMEGA). To this end, 1 μg of an HIV-1 env expressing vector under control of a CMV promoter, derived from pcDNA4/TO backbone vector (INVITROGEN) and 400 ng of the HIV-1 genomic vector (pNL4-3.Luc R^−E^−; National Institutes of Health AIDS Research and Reference Reagent program; catalogue number 3418), under control of the LTR promoter were used. pNL4-3.Luc R^−E^− contains the whole HIV genome, including a packaging signal, but has a frameshift in the env and vpr genes rendering it non-infectious. Furthermore a luciferase reporter gene replaces the nef gene. After 24 h, the medium was replaced with medium containing 1 mM sodium butyrate (SIGMA-ALDRICH) and the cells were further incubated for an additional 24 h. Afterwards, the supernatant with the pseudovirus was harvested, filtered (Millex 0.45 μm filters, MILLIPORE) and after adding Fetal calf serum (FCS; 10%) stored at −80° C. Pseudoviruses of different HIV-1 subtypes were created, including pseudoviruses derived from the subtype B, CCR5 co-receptor using strains Ba-L and SF162; the subtype B, CXCR4 co-receptor using strains Mn; the subtype C, CCR5 co-receptor using strains VI829, VI1358 and MJ4 and the CRF01_AE, CXCR4 co-receptor using strain CA10-3.
(§2) Fifty microliters of HIV pseudovirus were pre-incubated with 50 μl of a dilution series of a CD4 miniprotein or reference compound. After 15 minutes, 100 μl of GHOST target cells (AIDS REFERENCE AND REAGENT PROGRAM; 1.2×10^5 cells/ml) expressing CD4 and either of the HIV co-receptors CCR5 or CXCR4 were added to the 96-well cups containing the pre-treated pseudovirus. The GHOST cells were lysed 48 h post-infection by addition of the luciferin substrate (SteadyLite HTS, PERKIN ELMER LIFE SCIENCES). The resulting light signal, expressed as relative lights units (RLU), was quantified in a luminometer (Top Count™, CANBERRA-PACKARD).

In test [2] the test system is HIV-1 pseudovirus CA10-3. In words: HIV single cycle pseudovirus assay in GHOST cells. Conditions: read-out: antiviral activity EC50. How it is done:
as §1, §2

Test [3] concerns HIV-1 pseudovirus VI829. Briefly: HIV single cycle pseudovirus assay in GHOST cells. Conditions: read-out: antiviral activity EC50. On the procedure: as §1, §2
Test [4] deals with HIV-1 pseudovirus VI1358. In words: HIV single cycle pseudovirus assay in GHOST cells. The conditions noted are these: read-out: antiviral activity EC50. How it is done: as §1, §2
Test [5] deals with HIV-1 pseudovirus Ba-L. In words: HIV single cycle pseudovirus assay in GHOST cells. The conditions noted are these: read-out: antiviral activity EC50. On the procedure:
as §1, §2

The test system of test [6] is HIV-1 pseudovirus MJ4. In words: HIV single cycle pseudovirus assay in GHOST cells. The conditions noted are these: read-out: antiviral activity EC50. On the procedure:
as §1, §2

Test [7] concerns HIV-1 pseudovirus Mn. In words: HIV single cycle pseudovirus assay in GHOST cells. Conditions: read-out: antiviral activity EC50. How it is done:
as §1, §2

For test [8], the system named is HIV-1 Ba-L. Briefly: Dendritic cells assay: MO-DC/CD4+ T cell co-cultures, replication competent virus. Conditions: for pEC50: Human immunodeficiency virus 1, BAL. On the procedure:
Dendritic cell experiments were preformed with the replication-competent CCR5 co-receptor, using non-syncytium inducing, subtype B HIV-1 strain Ba-L whose infectious titer was determined on cultures of PHA/IL-2 stimulated PBMC.
Monocytes were separated from the buffy-coats of HIV seronegative blood donors by counter-flow elutriation and E-rosetting. They were subsequently differentiated to monocyte-derived dendritic cells (MO-DC) using GM-CSF and IL-4. […] After 30 minutes, 100 μl of MO-DC were added (4×10^5 cells/ml) and incubated for 2 h (37° C., 5% CO2). Afterwards, cells were washed 3 times and autologous CD4+ T cells were added, in the presence of compound. Co-cultures were incubated for 24 h, after which the cells were washed again (3 times) to remove the compound. Cells were incubated during 14 days of primary culture, during which half of the culture medium was refreshed twice weekly, without compound. At day 14, cultures were washed and PHA/IL-2 activated PBMC were added (2×10^5 cells/cup) to detect any latent or subliminal infection during a supplementary 14 days of secondary culture. Culture supernatants of primary (day 7 and day 14) and secondary (day 28) cultures were analyzed for the presence of HIV p24 Ag by a monoclonal p24 antibody (HuMab-HIVp24; BIOMARIC NV) enzyme-linked immunosorbant assay (ELISA).
Importantly, the replication-competent HIV-1 Ba-L reference strain, was used for these experiments. The virus was shortly pre-incubated with a dilution range of one of the compounds before addition of the MO-DC target cells. The compound remained present during infection and during the first 24 h of the co-culture of the MO-DC with the autologous CD4^+ T cells, but was washed away afterwards.

pEC50: −log10 of the molar value. Like-named read-outs stand apart in the source and are kept apart here.

A word on the pEC50: it is the negative decadic logarithm of the EC50, by convention in mol/L. With `Cc1cc(C)c(Nc2ccnc(Nc3ccc(C#N)cc3)n2)c(C)c1` [TMC120], the pEC50 is 9.05 in test [1]; 8.82 in test [2]; 8.92 in test [3]; 9.22 in test [4]; 8.82 in test [5]; 8.82 in test [6]. For the same compound, the pEC50 was 8.74 in test [7]; 8.52 in test [8] (168 h, Day 7, read-out: EC50, primary culture, Day 7); 8.52 in test [8] (336 h, Day 14, read-out: EC50, primary culture, Day 14). Also, the “Cmin, secondary culture, Day 28 (minimal concentration blocking infection)” value in test [8] (confirmed at Day 28) is 100 nM.
